Assays:
[1] = target: T1, human CD38 (Homo sapiens, UniProt P28907); experiment: human recombinant CD38 enzyme assay (hydrolysis of NAD+); type: biochemical; conditions: human recombinant CD38, 0.4 nM enzyme, 62.5 μM NAD+; read-out: hCD38 BioChem IC50
T1 sequence (P28907 1-300): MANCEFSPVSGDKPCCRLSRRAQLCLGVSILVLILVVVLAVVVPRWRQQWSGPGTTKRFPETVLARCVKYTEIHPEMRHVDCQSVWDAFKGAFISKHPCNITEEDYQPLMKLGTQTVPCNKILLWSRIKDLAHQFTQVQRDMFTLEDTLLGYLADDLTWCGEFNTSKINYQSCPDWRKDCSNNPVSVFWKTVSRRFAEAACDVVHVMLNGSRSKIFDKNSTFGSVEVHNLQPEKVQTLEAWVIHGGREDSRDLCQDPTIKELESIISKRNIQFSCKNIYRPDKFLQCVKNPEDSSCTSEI
In short: (§1)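 Inhibitors were titrated against purified CD38 hydrolysing NAD+ for 60 min at ambient temperature. Unconsumed substrate was quantified enzymatically via NADH-coupled resazurin reduction and fluorescence.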

[2] = target: T2, endogenous CD38 in HL60 cells (Homo sapiens, UniProt P28907); experiment: cellular CD38 assay in HL60 cells (cellular NAD levels); type: cell-based; conditions: all-trans retinoic acid, 24 hours, read-out: hCD38 HL60 ATRA NAD Cell Diaphorase IC50
T2 construct: endogenous in cells; host or cells: HL60 (leukemic cells, treated with all-trans retinoic acid)
T2 sequence (P28907 1-300): T1 sequence (P28907 1-300)
Description: The compounds described herein were also assayed for their ability to inhibit the endogenous CD38 in a native cellular environment in the cellular CD38 assay, which measures the ability of the compound to modulate cellular NAD levels. […] The assays were initiated by plating 20 μL of HL60 cells in culture medium, at a density of 20000 cells per well to a 384-well Corning™ Multiwell Plates. Compounds in DMSO were added to the plates in a volume of 120 nL using the Labcyte Echo Liquid Handlers. […] The plates are then incubated for 24 hours. 50 μL of a readout-solution containing 0.2 U/mL Diaphorase enzyme, 40 uM resazurin, 10 uM FMN, 0.8 U/mL Alcohol dehydrogenase, 3% ethanol, 0.4 mg/mL bovine serum albumin, 0.2% Triton X-100 in 100 mM Tris-HCl, 30 mM EDTA, pH 8.4. The plates were read for fluorescence (Excitation/Emission=540 nm/590 nm) using an EnVision plate reader after 60 mins of incubation at ambient temperature. Note that, in Table 5, the “Compound No” corresponds to the compound numbers in Table 1.

[3] = target: T3, mouse CD38 (Mus musculus, UniProt P56528); experiment: mouse recombinant CD38 enzyme assay (hydrolysis of NAD+); type: biochemical; conditions: read-out: mCD38 BioChem IC50
T3 sequence (P56528 1-304): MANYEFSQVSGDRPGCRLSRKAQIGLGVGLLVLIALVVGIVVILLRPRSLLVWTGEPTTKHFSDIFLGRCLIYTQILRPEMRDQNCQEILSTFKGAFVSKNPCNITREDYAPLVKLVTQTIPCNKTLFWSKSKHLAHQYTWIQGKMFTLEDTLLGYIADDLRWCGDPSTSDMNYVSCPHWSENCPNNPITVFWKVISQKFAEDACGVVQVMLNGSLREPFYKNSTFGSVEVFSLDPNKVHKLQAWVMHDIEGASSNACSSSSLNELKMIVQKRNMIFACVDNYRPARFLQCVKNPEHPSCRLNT
In short: as §1

| IC50 [1] | IC50 [2] | IC50 [3] | Structure (SMILES) |
| --- | --- | --- | --- |
| 9 nM | 0.928 µM | 1 nM | COc1cc(C(=O)N[C@H]2CC[C@H](OC)CC2)nc(-c2cncn2C)n1 [Compound 128, 6-methoxy-N-((1r,4r)-4-methoxycyclohexyl)-2-(1-methyl-1H-imidazol-5-yl)pyrimidine-4-carboxamide] |
| 11 nM | 2.77 µM | 6 nM | Cn1cncc1-c1nccc(C(=O)N[C@H]2CC[C@H](C(F)(F)F)CC2)n1 [Compound 83, 2-(1-methyl-1H-imidazol-5-yl)-N-((1r,4r)-4-(trifluoromethyl)cyclohexyl)pyrimidine-4-carboxamide] |
| 66.6 nM | 9.42 µM | 49.3 nM | O=C(Nc1ccc(C(F)F)nc1)c1nc(O)cc(-n2ccnc2)n1 [Compound 216, N-(6-(difluoromethyl)pyridin-3-yl)-4-hydroxy-6-(1H-imidazol-1-yl)pyrimidine-2-carboxamide] |
| 10 nM | 0.873 µM | 7 nM | O=C(Nc1ccnc(C(F)(F)F)c1)c1cccc(-n2ccnc2)n1 [Compound 38, 6-(1H-imidazol-1-yl)-N-(2-(trifluoromethyl)pyridin-4-yl)picolinamide] |
| 1510 nM | 7.39 µM | 760 nM | O=C(NC12CC(C1)C2)c1cccc(-n2ccnc2)n1 [Compound 16, N-(bicyclo[1.1.1]pentan-1-yl)-6-(1H-imidazol-1-yl)picolinamide] |
| 20.4 nM | 5.21 µM | 12.7 nM | COc1cc(C(=O)Nc2ccc(C(F)(F)F)nc2)nc(-c2cncn2C)c1 [Compound 226, 4-methoxy-6-(1-methyl-1H-imidazol-5-yl)-N-(6-(trifluoromethyl)pyridin-3-yl)picolinamide] |
| 562 nM | 10.1 µM | 138 nM | O=C(N[C@H]1CC[C@H](C(F)F)CC1)c1ccnc(-c2cncs2)n1 [Compound 87, N-((1r,4r)-4-(difluoromethyl)cyclohexyl)-2-(thiazol-5-yl)pyrimidine-4-carboxamide] |
| 296 nM | 10.4 µM | 62.4 nM | COc1ncc(-c2cncn2C)nc1C(=O)N[C@H]1CC[C@H](OC)CC1 [Compound 303, 3-methoxy-N-((1r,4r)-4-methoxycyclohexyl)-6-(1-methyl-1H-imidazol-5-yl)pyrazine-2-carboxamide] |
| 3 nM | 0.718 µM | 1 nM | O=C(Nc1ccc(C(F)F)nc1)c1cc(C2CC2)nc(-n2ccnc2)n1 [Compound 162, 6-cyclopropyl-N-(6-(difluoromethyl)pyridin-3-yl)-2-(1H-imidazol-1-yl)pyrimidine-4-carboxamide] |
| 2 nM | 0.241 µM | 2 nM | Cn1cncc1-c1nccc(C(=O)Nc2ccc(C(F)F)nc2)n1 [Compound 94, N-(6-(difluoromethyl)pyridin-3-yl)-2-(1-methyl-1H-imidazol-5-yl)pyrimidine-4-carboxamide] |
| 61.2 nM | 3.13 µM | 33.6 nM | O=C(N[C@H]1C[C@H](c2ccc(F)cc2F)C1)c1nccc(-n2ccnc2)n1 [Compound 239, N-((1r,3r)-3-(2,4-difluorophenyl)cyclobutyl)-4-(1H-imidazol-1-yl)pyrimidine-2-carboxamide] |
| 43 nM | 1.38 µM | 13 nM | Cn1cncc1-c1ccnc(C(=O)N[C@H]2CC[C@H](C)CC2)n1 [Compound 149, 4-(1-methyl-1H-imidazol-5-yl)-N-((1r,4r)-4-methylcyclohexyl)pyrimidine-2-carboxamide] |
| 1130 nM | 8.51 µM | 491 nM | O=C(Nc1ccccn1)c1cc(-n2ccnc2)ccn1 [Compound 4, 4-(1H-imidazol-1-yl)-N-(pyridin-2-yl)picolinamide] |
| 46.1 nM | 3.76 µM | 5.5 nM | COc1cc(-c2cncn2C)nc(C(=O)N[C@H]2CC[C@H](OC)CC2)n1 [Compound 192, 4-Methoxy-N-((1r,4r)-4-methoxycyclohexyl)-6-(1-methyl-1H-imidazol-5-yl)pyrimidine-2-carboxamide] |
